Results taken from patent US20030215352A1, “Method of controlling microbial contamination” (Church & Dwight Co., Inc., priority 2002, published 2003).
Read-outs that look alike come from different tables or passages of the source.

Experiments:
Details in all cases: 25° C.
P. aeruginosa = system: P. aeruginosa
Protocol: (§1) Absorbent products, of 2 in.×2 in., weighing about 1 gram each, and being of identical construction except that 0%, 2%, 4%, 6%, 8%, 10% and 12% (per gram of product) of sodium bicarbonate was incorporated therein are used for this example. […] Two ml of sterile water was added to each product. Each product was then inoculated with 0.1 ml of one of a bacterium or fungus selected from S. aureus (6.9×10^5 CFU/ml), E. coli (5.4×10^5 CFU/ml), P. aeruginosa (6.9×10^5 CFU/ml), and C. albicans (5×10^5 CFU/ml). Each inoculated product was incubated at 25° C. and kept moist in a petri dish. Microbial numbers were determined on days 7 and 14 Microbial numbers were determined by removing the product from the petri dish and placed in a bag with 9 ml of neutralizer broth, mixed and plated on Leethan Agar. These plates were then incubated for 48-72 hours at 30° C. and colonies on the plates were counted.

E. coli = system: E. coli
Protocol: as §1

S. aureus = system: S. aureus
Protocol: as §1

C. albicans = system: C. albicans
Protocol: as §1

[1] = Day 7, 2% sodium bicarbonate in absorbent product
[2] = Day 7, 4% sodium bicarbonate in absorbent product
[3] = Day 7, 6% sodium bicarbonate in absorbent product
[4] = Day 7, 8% sodium bicarbonate in absorbent product
[5] = Day 7, 10% sodium bicarbonate in absorbent product
[6] = Day 7, 12% sodium bicarbonate in absorbent product
[7] = Day 14, 2% sodium bicarbonate in absorbent product
[8] = Day 14, 4% sodium bicarbonate in absorbent product
[9] = Day 14, 6% sodium bicarbonate in absorbent product
[10] = Day 14, 8% sodium bicarbonate in absorbent product
[11] = Day 14, 10% sodium bicarbonate in absorbent product
[12] = Day 14, 12% sodium bicarbonate in absorbent product

**Q.** Which “Colony Forming Units/ml P. aeruginosa” value (P. aeruginosa; [1]) does the source give for `O=C([O-])O.[Na+]` [Sodium Bicarbonate, sodium bicarbonate] here?
**A.** <10 Colony Forming Units/ml

**Q.** What about the “Colony Forming Units/ml P. aeruginosa” value (P. aeruginosa; [2]) of the same compound?
**A.** <10 Colony Forming Units/ml

**Q.** What about the “Colony Forming Units/ml P. aeruginosa” value (P. aeruginosa; [3]) of the same compound?
**A.** 50 Colony Forming Units/ml

**Q.** What about the “Colony Forming Units/ml P. aeruginosa” value (P. aeruginosa; [4]) of the same compound?
**A.** 150 Colony Forming Units/ml

**Q.** What about the “Colony Forming Units/ml P. aeruginosa” value (P. aeruginosa; [5]) of the same compound?
**A.** <10 Colony Forming Units/ml

**Q.** What about the “Colony Forming Units/ml P. aeruginosa” value (P. aeruginosa; [6]) of the same compound?
**A.** <10 Colony Forming Units/ml

**Q.** What about the “Colony Forming Units/ml P. aeruginosa” value (P. aeruginosa; [7]) of the same compound?
**A.** 15 Colony Forming Units/ml

**Q.** What about the “Colony Forming Units/ml P. aeruginosa” value (P. aeruginosa; [8]) of the same compound?
**A.** <10 Colony Forming Units/ml

**Q.** And the “Colony Forming Units/ml P. aeruginosa” value (P. aeruginosa; [9])?
**A.** <10 Colony Forming Units/ml

**Q.** What about the “Colony Forming Units/ml P. aeruginosa” value (P. aeruginosa; [10]) of the same compound?
**A.** <10 Colony Forming Units/ml

**Q.** What about the “Colony Forming Units/ml P. aeruginosa” value (P. aeruginosa; [11]) of the same compound?
**A.** <10 Colony Forming Units/ml

**Q.** And the “Colony Forming Units/ml P. aeruginosa” value (P. aeruginosa; [12])?
**A.** <10 Colony Forming Units/ml

**Q.** And the “Colony Forming Units/ml E. coli” value (E. coli; [1])?
**A.** <10 Colony Forming Units/ml

**Q.** And the “Colony Forming Units/ml E. coli” value (E. coli; [2])?
**A.** <10 Colony Forming Units/ml

**Q.** And the “Colony Forming Units/ml E. coli” value (E. coli; [3])?
**A.** <10 Colony Forming Units/ml

**Q.** What about the “Colony Forming Units/ml E. coli” value (E. coli; [4]) of the same compound?
**A.** <10 Colony Forming Units/ml

**Q.** What about the “Colony Forming Units/ml E. coli” value (E. coli; [5]) of the same compound?
**A.** <10 Colony Forming Units/ml

**Q.** And the “Colony Forming Units/ml E. coli” value (E. coli; [6])?
**A.** <10 Colony Forming Units/ml

**Q.** What about the “Colony Forming Units/ml E. coli” value (E. coli; [7]) of the same compound?
**A.** <10 Colony Forming Units/ml

**Q.** What about the “Colony Forming Units/ml E. coli” value (E. coli; [8]) of the same compound?
**A.** <10 Colony Forming Units/ml

**Q.** What about the “Colony Forming Units/ml E. coli” value (E. coli; [9]) of the same compound?
**A.** <10 Colony Forming Units/ml

**Q.** And the “Colony Forming Units/ml E. coli” value (E. coli; [10])?
**A.** <10 Colony Forming Units/ml

**Q.** What about the “Colony Forming Units/ml E. coli” value (E. coli; [11]) of the same compound?
**A.** <10 Colony Forming Units/ml

**Q.** What about the “Colony Forming Units/ml E. coli” value (E. coli; [12]) of the same compound?
**A.** <10 Colony Forming Units/ml

**Q.** What about the “Colony Forming Units/ml S. aureus” value (S. aureus; [1]) of the same compound?
**A.** <10 Colony Forming Units/ml

**Q.** And the “Colony Forming Units/ml S. aureus” value (S. aureus; [2])?
**A.** <10 Colony Forming Units/ml

**Q.** And the “Colony Forming Units/ml S. aureus” value (S. aureus; [3])?
**A.** <10 Colony Forming Units/ml

**Q.** What about the “Colony Forming Units/ml S. aureus” value (S. aureus; [4]) of the same compound?
**A.** <10 Colony Forming Units/ml

**Q.** And the “Colony Forming Units/ml S. aureus” value (S. aureus; [5])?
**A.** 5 Colony Forming Units/ml

**Q.** What about the “Colony Forming Units/ml S. aureus” value (S. aureus; [6]) of the same compound?
**A.** <10 Colony Forming Units/ml

**Q.** What about the “Colony Forming Units/ml S. aureus” value (S. aureus; [7]) of the same compound?
**A.** <10 Colony Forming Units/ml

**Q.** What about the “Colony Forming Units/ml S. aureus” value (S. aureus; [8]) of the same compound?
**A.** <10 Colony Forming Units/ml

**Q.** What about the “Colony Forming Units/ml S. aureus” value (S. aureus; [9]) of the same compound?
**A.** <10 Colony Forming Units/ml

**Q.** What about the “Colony Forming Units/ml S. aureus” value (S. aureus; [10]) of the same compound?
**A.** 10 Colony Forming Units/ml

**Q.** And the “Colony Forming Units/ml S. aureus” value (S. aureus; [11])?
**A.** <10 Colony Forming Units/ml

**Q.** What about the “Colony Forming Units/ml S. aureus” value (S. aureus; [12]) of the same compound?
**A.** <10 Colony Forming Units/ml

**Q.** And the “Colony Forming Units/ml C. albicans” value (C. albicans; [1])?
**A.** 1,800 Colony Forming Units/ml

**Q.** And the “Colony Forming Units/ml C. albicans” value (C. albicans; [2])?
**A.** 5 Colony Forming Units/ml

**Q.** And the “Colony Forming Units/ml C. albicans” value (C. albicans; [3])?
**A.** <10 Colony Forming Units/ml

**Q.** And the “Colony Forming Units/ml C. albicans” value (C. albicans; [4])?
**A.** 70 Colony Forming Units/ml

**Q.** What about the “Colony Forming Units/ml C. albicans” value (C. albicans; [5]) of the same compound?
**A.** <10 Colony Forming Units/ml

**Q.** What about the “Colony Forming Units/ml C. albicans” value (C. albicans; [6]) of the same compound?
**A.** 30 Colony Forming Units/ml

**Q.** And the “Colony Forming Units/ml C. albicans” value (C. albicans; [7])?
**A.** 15 Colony Forming Units/ml

**Q.** And the “Colony Forming Units/ml C. albicans” value (C. albicans; [8])?
**A.** 450 Colony Forming Units/ml

**Q.** And the “Colony Forming Units/ml C. albicans” value (C. albicans; [9])?
**A.** <10 Colony Forming Units/ml

**Q.** What about the “Colony Forming Units/ml C. albicans” value (C. albicans; [10]) of the same compound?
**A.** 3000 Colony Forming Units/ml

**Q.** What about the “Colony Forming Units/ml C. albicans” value (C. albicans; [11]) of the same compound?
**A.** <10 Colony Forming Units/ml

**Q.** And the “Colony Forming Units/ml C. albicans” value (C. albicans; [12])?
**A.** <10 Colony Forming Units/ml
